Data from patent publication US20230399320A1, “NOVEL CAPSID ASSEMBLY INHIBITOR” (Pelemed Co., Ltd., priority 2020, published 2023).
pIC50: −log10 of the molar value. Read-outs that look alike come from different tables or passages of the source.

Tests used:
[1] = biological target: T1, Cp149 (truncated form of a HBV core protein) (Hepatitis B virus genotype D subtype ayw, UniProt P03146); experiment: Protein based assay: immunoblot analysis of in vitro HBV capsid assembly; type: biochemical; details: for inhibition at 10 µM: read-out: Protein based assay (% inhibition, 10 μM); for inhibition at 0.1 µM: read-out: Protein based assay (% inhibition), 0.1 μM; for inhibition at 1 µM: read-out: Protein based assay (% inhibition), 1 μM
T1 construct: Cp149 (amino acids 1-149) is a truncated form of a HBV core protein; histidine tag (cleaved yes); made in house; host or cells: Escherichia coli BL21(DE3)
Experimental: Cp149 (amino acids 1-149) is a truncated form of a HBV core protein. It was expressed in Escherichia coli, and the expressed protein was purified. The recombinant Cp149 was expressed in E. coli BL21(DE3) cells cultured in LB medium at 37° C. When the culture reached an OD600 of 0.7 to 0.8, expression of the culture was induced with 0.5 mM isopropyl-β-d-thiogalactopyranoside and the culture was cooled to 16° C. After 16 hours, the cells were harvested, flash-frozen in liquid nitrogen, and stored at −80° C. To purify Cp149, thawed cells were resuspended in lysis buffer (20 mM Tris-HCl pH 9.0, 200 mM NaCl, 10 mM imidazole, 10 μg per mL DNaseI, 1 mM phenylmethylsulfonyl fluoride), and treated with ultrasonic waves. The supernatant was loaded onto Ni-NTA affinity resin. Proteins were eluted using a 20 mM to 500 mM imidazole gradient dissolved in lysis buffer. After removing the histidine tag with thrombin, the protein was further purified by HiTrap Q anion exchange chromatography (17115401, GE Healthcare).
To determine the effect on in vitro Cp149 assembly, compounds of the present invention were added to the Cp149-containing suspension. The final concentration of Cp149 was 1 mg per mL, and the compounds of the present invention were added at concentrations of 0.1 to 10 μM. The suspension was mixed with reaction buffer (150 mM HEPES, pH 7.5, 15 mM NaCl) added in a 2:1 ratio. In vitro assembly was performed at 37° C. for 1 hour, and HBV capsid was detected by immunoblot analysis using an anti-HBV core antibody (1:2000, B0586, Dako).

[2] = tested on: HBV DNA; experiment: Quantitative PCR for measuring HBV DNA in cells (HBV DNA quantification); type: cell-based
Experimental: After treating cells with the indicated compounds, HBV DNA secreted into the medium and intracellular HBV DNA were extracted, purified, and quantified by quantitative PCR. To isolate the secreted HBV DNA, the culture medium was recovered and centrifuged at 15,000×g to remove debris. The medium was diluted 1:1 with phosphate-buffered saline (PBS), and 1 M NaOH solution was added to a final concentration of 0.1 M. The mixture was incubated at 37° C. for 1 hour. The protein was denatured by adding 2M Tris-HCl solution (pH 7.5) to a final concentration of 0.2 M and incubating at 98° C. for 5 minutes. The protein precipitation was removed by centrifugation at 15,000×g, and the supernatant was subjected to PCR with HBV DNA primer and probe sets:
Forward: 5′-[…]-3′, Reverse: 5′-[…]-3′, Probe: 5′-[…]-3′.

[3] = Hepatitis B virus, read-out: HBV DNA quantification
[4] = Hepatitis B virus; read-out: HBV DNA quantification (IC50 μM)
[5] = Hepatitis B virus, read-out: HBV DNA quantification (IC50 μM)

T1 sequence (P03146 1-149): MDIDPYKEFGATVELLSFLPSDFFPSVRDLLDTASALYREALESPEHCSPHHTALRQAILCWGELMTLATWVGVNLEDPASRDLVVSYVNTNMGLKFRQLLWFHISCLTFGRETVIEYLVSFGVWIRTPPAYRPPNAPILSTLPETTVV

SMILES | inhibition at 10 µM [1] [%] | IC50 [2, 4] [µM] | IC50 [2, 5] [µM] | also measured
COc1ncccc1C(=O)NCCNc1cc(Nc2ccc(F)cc2)nc(SC)n1 [Compound 8b, N-(2-(6-(4-fluorophenylamino)-2-(methylthio)pyrimidin-4-ylamino)ethyl)-2-methoxynicotinamide] | 74 |  |  | 
COc1ncccc1C(=O)NCCNc1cc(Nc2ccc(F)c(F)c2)nc(SC)n1 [Compound 8f, N-(2-(6-(3,4-difluorophenylamino)-2-(methylthio)pyrimidin-4-ylamino)ethyl)-2-methoxynicotinamide] | 37 |  |  | pIC50 [2, 3]: < 5.00
CS(=O)(=O)c1nc(Nc2cc(F)c(F)c(F)c2)cc(NC2CCNCC2)n1 [Compound 26e, 2-(methylsulfonyl)-N^4-(piperidin-4-yl)-N^6-(3,4,5-trifluorophenyl)pyrimidine-4,6-diamine] |  | 0.19 |  | inhibition at 0.1 µM [1]: 16%; inhibition at 1 µM [1]: 90%
CS(=O)(=O)c1nc(Nc2ccc(F)c(Br)c2)cc(N2CCC(N)CC2)n1 [Compound 26j, 6-(4-aminopiperidin-1-yl)-N-(3-bromo-4-fluorophenyl)-2-(methylsulfonyl)pyrimidin-4-amine] |  | 0.48 |  | inhibition at 0.1 µM [1]: 10%; inhibition at 1 µM [1]: 98%
CSc1nc(Cl)cc(N(Cc2ccc(F)cc2)c2ccc(N3CCOCC3)cc2)n1 [Compound 10a, 6-chloro-N-(4-fluorobenzyl)-2-(methylthio)-N-(4-morpholinophenyl)pyrimidin-4-amine] | 58 |  | > 10 | 
CC(C)(C)OC(=O)N1CCN(c2cc(NCc3cc(F)c(F)c(F)c3)nc(S(C)(=O)=O)n2)CC1 [Compound 22l, tert-butyl 4-(2-(methylsulfonyl)-6-(3,4,5-trifluorobenzylamino)pyrimidin-4-yl)piperazine-1-carboxylate] | 89 |  | 1.02 | 
CS(=O)(=O)c1nc(Nc2ccc(F)c(Cl)c2)cc(Nc2ccc(F)c(Cl)c2)n1 [Compound 18c, N^4,N^6-bis(3-chloro-4-fluorophenyl)-2-(methylsulfonyl)pyrimidine-4,6-diamine] | 57 |  | 0.587 | 
COc1ncccc1C(=O)NCCNc1cc(Nc2ccccc2)nc(SC)n1 [Compound 8a, 2-methoxy-N-(2-(2-(methylthio)-6-(phenylamino)pyrimidin-4-ylamino)ethyl)nicotinamide] | 0 |  |  | pIC50 [2, 3]: < 5.00
COc1ncccc1C(=O)NCCNc1cc(Nc2ccc(F)c(F)c2)nc(S(C)(=O)=O)n1 [Compound 9g, N-(2-(6-(3,4-difluorophenylamino)-2-(methylsulfonyl)pyrimidin-4-ylamino)ethyl)-2-methoxynicotinamide] | 59 |  | > 10 | 
COc1ncccc1C(=O)NCCNc1cc(Nc2ccc(N3CCOCC3)cc2)nc([S+](C)[O-])n1 (centres unmarked) [Compound 5a, 2-methoxy-N-(2-(2-(methylsulfinyl)-6-(4-morpholinophenylamino)pyrimidin-4-ylamino)ethyl)nicotinamide] | 95 | 0.402 |  | pIC50 [1]: 5.28; inhibition at 0.1 µM [1]: 43%; inhibition at 1 µM [1]: 83%
CS(=O)(=O)c1nc(Nc2ccc(F)c(Cl)c2)cc(N2C[C@H]3C[C@@H]2CN3)n1 [Compound 29a, 6-((1R,4R)-2,5-diazabicyclo[2.2.1]heptan-2-yl)-N-(3-chloro-4-fluorophenyl)-2-(methylsulfonyl)pyrimidin-4-amine] |  |  | 0.15 | 
COc1ncccc1C(=O)NCCNc1cc(Nc2ccc(Cl)cc2)nc([S+](C)[O-])n1 (centres unmarked) [Compound 9c, N-(2-(6-(4-chlorophenylamino)-2-(methylsulfinyl)pyrimidin-4-ylamino)ethyl)-2-methoxynicotinamide] |  |  | 0.299 | inhibition at 0.1 µM [1]: 27%; inhibition at 1 µM [1]: 80%
CC(C)(C)OC(=O)N1CCN(c2cc(NCc3ccc(Cl)cc3)nc(S(C)(=O)=O)n2)CC1 [Compound 22d, tert-butyl 4-(6-(4-chlorobenzylamino)-2-(methylsulfonyl)pyrimidin-4-yl)piperazine-1-carboxylate] | 55 |  | 5.08 | 
CS(=O)(=O)c1nc(Nc2ccc(F)c(Br)c2)cc(N2CCNCC2)n1 [Compound 26d, N-(3-bromo-4-fluorophenyl)-2-(methylsulfonyl)-6-(piperazin-1-yl)pyrimidin-4-amine] |  | 0.547 |  | inhibition at 0.1 µM [1]: 13%; inhibition at 1 µM [1]: 98%
COc1ncccc1C(=O)N1CCN(c2cc(Nc3ccc(N4CCOCC4)cc3)nc(SC)n2)CC1 [Compound 13, (2-methoxypyridin-3-yl)(4-(2-(methylthio)-6-(4-morpholinophenylamino)pyrimidin-4-yl)piperazin-1-yl)methanone] | 31 | > 10 |  | 
CSc1nc(Cl)cc(N(CCc2ccc(F)cc2)c2ccc(N3CCOCC3)cc2)n1 [Compound 10b, 6-chloro-N-(4-fluorophenethyl)-2-(methylthio)-N-(4-morpholinophenyl)pyrimidin-4-amine] | 76 |  | > 10 | 
COc1ncccc1C(=O)NCCNc1cc(Nc2ccc(N3CCOCC3)cc2)nc(SC)n1 [Compound 4a, 2-methoxy-N-(2-(2-(methylthio)-6-(4-morpholinophenylamino)pyrimidin-4-ylamino)ethyl)nicotinamide] | 23 | > 10 |  | pIC50 [1]: 5.01
COc1ncccc1C(=O)NCCNc1cc(Nc2ccc(F)c(F)c2)nc([S+](C)[O-])n1 (centres unmarked) [Compound 9f, N-(2-(6-(3,4-difluorophenylamino)-2-(methylsulfinyl)pyrimidin-4-ylamino)ethyl)-2-methoxynicotinamide] | 38 |  | > 10 | 
COc1cncc(C(=O)NCCNc2cc(Nc3ccc(N4CCOCC4)cc3)nc([S+](C)[O-])n2)c1 (centres unmarked) [Compound 5b, 5-methoxy-N-(2-(2-(methylsulfinyl)-6-(4-morpholinophenylamino)pyrimidin-4-ylamino)ethyl)nicotinamide] | 78 | > 10 |  | 
COc1ncccc1C(=O)NCCNc1cc(Nc2ccc(I)cc2)nc([S+](C)[O-])n1 (centres unmarked) [Compound 9e, N-(2-(6-(4-iodophenylamino)-2-(methylsulfinyl)pyrimidin-4-ylamino)ethyl)-2-methoxynicotinamide] | 37 | > 10 |  | 
COc1ncccc1C(=O)NCCNc1cc(Nc2ccc(I)cc2)nc(SC)n1 [Compound 8e, N-(2-(6-(4-iodophenylamino)-2-(methylthio)pyrimidin-4-ylamino)ethyl)-2-methoxynicotinamide] | 43 |  |  | 
CS(=O)(=O)c1nc(Nc2ccc(F)c(Cl)c2)cc(N2C[C@@H]3[C@@H](N)[C@@H]3C2)n1 [Compound 29d, (1R,5S,6s)-3-(6-(3-chloro-4-fluorophenylamino)-2-(methylsulfonyl)pyrimidin-4-yl)-3-azabicyclo[3.1.0]hexan-6-amine] |  |  |  | IC50 ([2]; read-out: HBV DNA quantification (IC50 μM)): 0.769 µM
CS(=O)(=O)c1nc(Nc2ccc(F)c(Cl)c2)cc(N2CC3(CNC3)C2)n1 [Compound 29b, N-(3-chloro-4-fluorophenyl)-2-(methylsulfonyl)-6-(2,6-diazaspiro[3.3]heptan-2-yl)pyrimidin-4-amine] |  |  | 0.235 | 
CS(=O)(=O)c1nc(Nc2ccc(F)c(Cl)c2)cc(N2C[C@@H]3C[C@H]2CN3)n1 [Compound 29c, 6-((1S,4S)-2,5-diazabicyclo[2.2.1]heptan-2-yl)-N-(3-chloro-4-fluorophenyl)-2-(methylsulfonyl)pyrimidin-4-amine] |  |  | 0.428 | 
